Laboratory results published in PMC5923120, “Acylhydrazones as Antifungal Agents Targeting the Synthesis of Fungal Sphingolipids” (Antimicrobial Agents and Chemotherapy, 2018).
In brackets after ≈: the same amount, converted by molar mass.

Columns and labels:
in vitro = details: monkey
Description: A commercially available kit was used to examine permeability through the blood-brain barrier (BBB kit MBT-24; Pharmaco Cell Co. Ltd.). This kit allows us to perform a permeability assay using an in vitro reproduction of the blood-brain barrier using monkey brain. Briefly, in a 12-well plate there is a triple culture, with endothelial cells in the luminal part and perycites and astrocytes in the abluminal side connected by tight junctions. The luminal side of the well represents the blood side, whereas the abluminal side represents the brain side. The integrity of the blood-brain barrier is assessed by the measurement of TEER, which indicates the formation of tight junctions. To have an efficient system, the TEER should be >150 Ω cm^2. The kit is kept frozen at −80°C until it is ready to use. […] After that it takes 3 days for the cells to adjust, and then the plate can be used in 4 days for the experiment. For drug testing, after assessing the TEER, the drugs were added in the chosen medium at the desired concentrations and at different time points. At the end of each time point the TEER was measured to assess if the BBB was still intact. After that the medium was collected and subjected to MS to measure the concentration of the samples in the brain side and calculate the permeability value (Papp).

HepG2 = assay: In vitro toxicity (MTT), HepG2; type: cell-based; details: Homo sapiens, cytotoxicity
Description: The murine macrophage cell line J774 and human cancer cell lines A549 and HepG2 were maintained in DMEM containing 10% fetal bovine serum (FBS) and 1% penicillin-streptomycin. At passage 7, 10^5 cells/well in DMEM containing 10% FBS were transferred into 96-well plates and cultured for 14 h for the cells to adhere to the wells. The compounds were added to the cells at concentrations ranging from 0.03 to 128 μg/ml. The wells without the compound served as controls. […] After 24 or 48 h, the supernatant was removed and 50 μl of 5-mg/ml 3-(4,5-dimethylthiazol-2-yl)-2,5-diphenyltetrazoliumbromide (MTT) solution in phosphate-buffered saline (PBS) was added to each well. The plates were incubated for an additional 4 h. The formazan crystal formed inside the cell was dissolved by adding 50 μl of dimethyl sulfoxide (DMSO). The optical density was measured at 570 nm.

Caco-2 permeability = details: human; for Papp A→B at 2 h, 5 μM / Papp B→A at 2 h, 5 μM: Caco-2, pH 7.4
Description: (§1) The Caco-2 permeability studies were performed as follows. (i) For the preparation of Caco cells, 50-μl and 25-ml volumes of cell culture medium were added to each well of the Transwell insert and reservoir, respectively. The HTS Transwell plates then were incubated at 37°C, 5% CO2 for 1 h before cell seeding. […] (ii) For the preparation of stock solutions, 10 mM stock solutions of test compounds were prepared in DMSO. The stock solutions of positive controls were prepared in DMSO at a concentration of 10 mM. Digoxin and propranolol were used as control compounds in this assay. (iii) For the assessment of cell monolayer integrity, medium was removed from the reservoir and each Transwell insert and replaced with prewarmed fresh culture medium. Transepithelial electrical resistance (TEER) across the monolayer was measured using a Millicell epithelial volt-Ohm measuring system (Millipore, USA). The plate was returned to the incubator once the measurement was done. The TEER value was calculated according to the following equation: TEER measurement (ohms) × area of membrane (cm^2) = TEER value (ohm · cm^2). The TEER value should be greater than 230 Ω · cm^2, which indicates a well-qualified Caco-2 monolayer. (iv) The assay was performed as follows. The Caco-2 plate was removed from the incubator and washed twice with prewarmed Hanks' balanced salt solution (HBSS; with 10 mM HEPES, pH 7.4) and then incubated at 37°C for 30 min. The stock solutions of control compounds were diluted in DMSO to get 1 mM solutions and then diluted with HBSS (10 mM HEPES, pH 7.4) to get 5 μM working solutions. The stock solutions of the test compounds were diluted in DMSO to get 1 mM solutions and then diluted with HBSS (10 mM HEPES, pH 7.4) to get 5 μM working solutions. The final concentration of DMSO in the incubation system was 0.5%. To determine the rate of drug transport in the apical to basolateral direction, 75 μl of 5 μM working solution of test compound was added to the Transwell insert (apical compartment), and the wells in the receiver plate (basolateral compartment) were filled with 235 μl of HBSS (10 mM HEPES, pH 7.4). To determine the rate of drug transport in the basolateral to apical direction, 235 μl of 5 μM working solution of test compound was added to the receiver plate wells (basolateral compartment), and then the Transwell inserts (apical compartment) were filled with 75 μl of HBSS (10 mM HEPES, pH 7.4). Time zero samples were prepared by transferring 50 μl of 5 μM working solution to wells of the 96-deep-well plate, followed by the addition of 200 μl cold acetonitrile or methanol containing appropriate IS. The plates were incubated at 37°C for 2 h. At the end of the incubation, 50-μl samples from donor sides (apical compartment for AP→BL flux and basolateral compartment for BL→AP) and receiver sides (basolateral compartment for AP→BL flux and apical compartment for BL→AP) were transferred to wells of a new 96-well plate, followed by the addition of 4 volumes of cold acetonitrile or methanol containing appropriate IS. […] An aliquot of 100 μl of the supernatant was mixed with an appropriate volume of ultrapure water before LC-MS/MS analysis. To determine the Lucifer yellow leakage after a 2-h transport period, a stock solution of Lucifer yellow was prepared in ultrapure water and diluted with HBSS (10 mM HEPES, pH 7.4) to reach a final concentration of 100 μM. One hundred microliters of the Lucifer yellow solution was added to each Transwell insert (apical compartment), followed by filling the wells in the receiver plate (basolateral compartment) with 300 μl of HBSS (10 mM HEPES, pH 7.4). The plates were incubated at 37°C for 30 min, and 80-μl samples were removed directly from the apical and basolateral wells (using the basolateral access holes) and transferred to wells of new 96-well plates.

Caco-2 cell line = assay: Caco-2 permeability; details: human, Caco-2, 2 h, 5 μM, pH 7.4
Description: as §1

Aspergillus fumigatus = assay: Mouse model of invasive pulmonary aspergillosis; type: in vivo, mice; details: oral 20 mg/kg/day; for lung fungal burden (CFU) of surviving mice: at the endpoint, data not shown; for mice that survived: immunosuppressed mice, after 15 days
Description: For survival study, 8-week-old CBA/J (Envigo) male mice were used. They were divided into sets of 10 mice for each treatment or control group. The day prior to infection, the mice were immunosuppressed by using triamcinolone acetonide (1 mg/mouse) subcutaneously ([40]). On day 0, mice were infected intranasally with 20 μl of a suspension containing 2 × 10^4 conidia of A. fumigatus strain Af293 and were treated through gavage with 20 mg/kg/day of BHBM, D13, or voriconazole (as a drug control) in a final volume of 100 μl of 30% PEG in saline buffer. The untreated control group mice received 100 μl of 30% PEG in saline buffer. Mice were fed ad libitum and were given 50% grapefruit juice in place of normal drinking water to avoid the liver metabolism of the drugs ([41]). Mice were monitored every day for discomfort and sacrificed subsequently.

C. neoformans [1] = assay: In vitro killing assay; details: minimum concentration that kills 100% of C. neoformans cells in 48 h
Description: C. neoformans cells from a culture grown overnight were washed in PBS and resuspended in YNB buffered with HEPES at pH 7.4. The cells were counted, and 2 × 10^4 cells were incubated with different concentrations of the drugs in a final volume of 10 ml with a final concentration of 0.5% DMSO. The tubes were then incubated at 37°C with 5% CO2 on a rotary shaker at 200 rpm. Aliquots were taken at the time points indicated and diluted, and 100-µl portions were plated onto YPD plates.

[2] = Pharmacokinetic studies (plasma concentration); type: in vivo, mice
Description: For i.p. study, BHBM and D13 were dissolved in a mixture of cremophore-ethanol (1:1) to prepare a 10-mg/ml stock solution. The stock solution was diluted in PBS to obtain 200-μg/ml and 400-μg/ml solutions for i.p. administrations in C3H/HeN mice (n = 3). The compounds were administered to control (healthy) mice or immunocompromised mice infected with P. murina at doses of 0.8 mg/kg and 1.6 mg/kg via tail vein injection or intraperitoneal injection in a final volume of 100 μl. The mice were sacrificed and blood samples were collected predose and 0.5, 1, 2, 4, 8, 12, and 24 h after administration into K2EDTA-containing tubes. The samples were centrifuged immediately, and plasma was collected and stored at −80°C until bioanalysis. Plasma samples were extracted using methylene chloride.
Briefly, 50 μl of the plasma sample was taken into a glass vial, and 10 μl of internal standard N′-(3-bromobenzylidene)-4-hydroxybenzohydrazide was added. After the contents of the glass vial were mixed, 1 ml of methylene chloride was added to the vial and the samples were vortex mixed for 30 s, followed by centrifugation for 5 min. Eight hundred microliters of supernatant then was transferred to another tube and evaporated to dryness using a centrifugal evaporator. The residue was reconstituted in 100 μl acetonitrile-water (50:50) solution, mixed, and transferred to mass spectrometry vials. Separation was performed under isocratic reverse-phase chromatographic conditions using a Waters XBridge C18 column (3.5 μm; 2.1 by 100 mm) (Waters, Milford, MA), a Finnigan Surveyor MS pump (Thermo Fisher Scientific), and a Finnigan Micro AS autosampler (Thermo Fisher Scientific).
The mobile phase consisted of water-acetonitrile with 0.1% formic acid (50:50) run at a flow rate of 200 μl/min. Five-microliter aliquots then were analyzed using an LTQ-FT liquid chromatography-tandem mass spectrometer (LC-MS/MS) with the electrospray source in the positive ion mode (Thermo Fisher Scientific). For i.v. and p.o. administration, the formulation consisted of a 0.5-mg/ml solution of PEG 400-DMA (9:1). A volume of 1.21 mg of D13 was dissolved in 0.242 ml of […] (DMA) by vortexing and sonication, and then 2.178 ml of PEG440 was added with vortexing and sonication until a clear solution was obtained. For a 4-mg/ml solution of PEG 400-DMA (9:1), 2.13 mg of D13 was dissolved in 0.053 ml of DMA by vortexing and sonication, and then 0.479 ml of PEG 440 was added with vortexing and sonication until a clear solution was obtained. For i.v. and p.o. administration of BHBM, the formulation consisted of a 0.5-mg/ml solution of 5% DMSO and 5% solutol in water. A volume of 0.98 mg of BHBM was dissolved in 0.098 ml of DMSO with vortexing and sonication. […]

[3] = target: human ether-a-go-go-related gene (hERG) potassium channel (Homo sapiens, UniProt Q12809); assay: hERG patch clamp assay; type: cell-based
C. neoformans [4] = assay: Mouse model of cryptococcosis; type: in vivo, mice; details: for mice that survived: treatment immediately after intranasal infection, 40 days
[5] = i.p. 1.2 mg/kg/day, treatment started 5 days after infection
[6] = oral 20 mg/kg/day starting the day of infection
[7] = oral 20 mg/kg/day, 32 days posttreatment, data not shown

Sequence of human ether-a-go-go-related gene (hERG) potassium channel (Q12809 whole entry): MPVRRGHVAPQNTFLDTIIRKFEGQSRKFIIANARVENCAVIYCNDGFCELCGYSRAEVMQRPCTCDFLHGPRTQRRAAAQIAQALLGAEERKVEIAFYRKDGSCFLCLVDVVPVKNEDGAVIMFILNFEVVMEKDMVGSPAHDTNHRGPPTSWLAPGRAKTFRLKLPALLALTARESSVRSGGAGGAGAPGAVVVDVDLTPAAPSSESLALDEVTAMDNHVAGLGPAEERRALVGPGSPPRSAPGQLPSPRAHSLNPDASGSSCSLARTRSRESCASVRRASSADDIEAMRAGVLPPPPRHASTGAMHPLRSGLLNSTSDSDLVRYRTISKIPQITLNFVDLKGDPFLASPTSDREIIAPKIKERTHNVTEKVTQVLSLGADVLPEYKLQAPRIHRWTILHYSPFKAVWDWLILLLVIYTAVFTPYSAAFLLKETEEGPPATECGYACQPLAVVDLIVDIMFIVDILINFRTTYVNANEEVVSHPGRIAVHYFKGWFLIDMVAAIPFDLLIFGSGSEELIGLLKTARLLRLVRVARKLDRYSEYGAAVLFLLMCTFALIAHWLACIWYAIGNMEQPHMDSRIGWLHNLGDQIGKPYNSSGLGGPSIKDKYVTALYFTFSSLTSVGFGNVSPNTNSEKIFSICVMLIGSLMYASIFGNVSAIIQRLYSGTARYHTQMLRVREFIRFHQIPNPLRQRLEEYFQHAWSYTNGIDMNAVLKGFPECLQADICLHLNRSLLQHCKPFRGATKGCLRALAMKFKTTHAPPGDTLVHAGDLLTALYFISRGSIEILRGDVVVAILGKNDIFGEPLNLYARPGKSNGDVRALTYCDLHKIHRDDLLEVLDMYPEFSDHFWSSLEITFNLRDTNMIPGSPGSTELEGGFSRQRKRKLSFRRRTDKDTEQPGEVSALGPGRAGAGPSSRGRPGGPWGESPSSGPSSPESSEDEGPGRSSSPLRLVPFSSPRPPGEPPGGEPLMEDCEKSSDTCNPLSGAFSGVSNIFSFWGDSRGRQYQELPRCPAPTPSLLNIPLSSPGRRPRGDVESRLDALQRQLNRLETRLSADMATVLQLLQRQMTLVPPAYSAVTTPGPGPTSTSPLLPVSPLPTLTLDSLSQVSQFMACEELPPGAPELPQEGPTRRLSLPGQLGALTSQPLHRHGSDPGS

Structure (SMILES) | Papp at 5 min (in vitro) | Papp at 15 min (in vitro) | Papp at 30 min (in vitro) | IC50 (HepG2) | Papp A→B at 2 h, 5 μM (Caco-2 permeability) | Papp B→A at 2 h, 5 μM (Caco-2 permeability) | recovery at 2 h, 5 μM (Caco-2 permeability; Caco-2, pH 7.4, Recovery AP→BL) | recovery at 2 h, 5 μM (Caco-2 permeability; Caco-2, pH 7.4, Recovery BL→AP) | lung fungal burden (CFU) of surviving mice (Aspergillus fumigatus) | mice that survived (Aspergillus fumigatus) | K100* (C. neoformans [1]) | time up to which detected in plasma ([2]; i.p. administration) | IC50 [3] | mice that survived (C. neoformans [4]; i.p. 1.2 mg/kg/day) | mice that survived until the end of the experiment (C. neoformans [4]; [6]) | other results
Cc1ccccc1C(=O)N/N=C/c1cc(Br)ccc1O [BHBM, (E)-N′-(3-bromo-6-hydroxybenzylidene)-2-methylbenzohydrazide] | 220 nm/s | 90 nm/s | 90 nm/s | 32 mg/L (≈ 96 µM) | 143 nm/s | 47.1 nm/s | ~40% | ~40% | showed evidence of colonies | 30% | >1 µg/mL | ≤ 4 h | 11.5 µM | 50% | 10% | Recovery AP→BL (Caco-2 cell line): 41.88%; Recovery BL→AP (Caco-2 cell line): 39.05%; time up to which detected in plasma ([2]; i.v. injection): 8 h; plasma concentration ([2]; i.v., reached within the first hour and remained for about 8 h): 0.01 µg/mL; day by which all mice died (C. neoformans [4]; [5]): ≤ 30 days
O=C(N/N=C/c1cc(Br)cc(Br)c1O)c1ccc(Br)cc1 [D13] | 68 nm/s | 22 nm/s | 11 nm/s | > 128 mg/L | 1.3 nm/s | < 10 nm/s | 49.8% | 107% | only one D13-treated mouse showed evidence of colonies | 80% | 0.5 µg/mL | ≥ 20 h | > 30 µM | 70% | 50% | efflux ratio at 2 h, 5 μM (Caco-2 permeability; Caco-2, pH 7.4, Efflux ratio): < 2; Efflux ratio (Caco-2 cell line): 1.74; mice that survived until the end of the experiment (C. neoformans [4]; [5]): 40%; CFU in brains and lungs (C. neoformans [4]; [7]): only one D13-treated mouse showed fungal colonies and only in the lung; fungal cells in brains (C. neoformans [4]; [7]): clear of fungal cells
